{"source": "paper PMC12371036", "about": "(Nature Communications, 2025)", "key": {"[1]": {"target": "T1, UVR8^D96N/D107N (constitutive monomer) (Arabidopsis thaliana, UniProt Q9FN03, D96N/D107N)", "T1 sequence (Q9FN03 1-440 D96N/D107N)": "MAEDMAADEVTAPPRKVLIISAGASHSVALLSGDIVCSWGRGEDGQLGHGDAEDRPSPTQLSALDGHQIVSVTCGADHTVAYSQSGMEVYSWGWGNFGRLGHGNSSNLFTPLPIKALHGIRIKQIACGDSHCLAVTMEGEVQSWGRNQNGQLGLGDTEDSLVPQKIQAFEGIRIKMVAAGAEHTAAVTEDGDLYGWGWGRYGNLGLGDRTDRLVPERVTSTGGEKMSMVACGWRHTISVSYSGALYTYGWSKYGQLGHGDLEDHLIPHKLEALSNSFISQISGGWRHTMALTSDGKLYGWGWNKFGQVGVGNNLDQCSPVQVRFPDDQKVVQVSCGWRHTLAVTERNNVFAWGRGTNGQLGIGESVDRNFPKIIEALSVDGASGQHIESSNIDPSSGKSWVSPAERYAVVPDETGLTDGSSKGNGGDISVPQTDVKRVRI", "experiment": "nanoDSF Tm increase with purified recombinant protein", "format": "binding"}, "[2]": {"target": "UVR8 (UV RESISTANCE LOCUS8) (Arabidopsis thaliana, UniProt Q9FN03)", "experiment": "MST", "format": "binding"}, "[3]": {"target": "T2, His-SUMO-UVR8 (wild-type UV … LOCUS8) (Arabidopsis thaliana), Q9FN03", "T2 chain": "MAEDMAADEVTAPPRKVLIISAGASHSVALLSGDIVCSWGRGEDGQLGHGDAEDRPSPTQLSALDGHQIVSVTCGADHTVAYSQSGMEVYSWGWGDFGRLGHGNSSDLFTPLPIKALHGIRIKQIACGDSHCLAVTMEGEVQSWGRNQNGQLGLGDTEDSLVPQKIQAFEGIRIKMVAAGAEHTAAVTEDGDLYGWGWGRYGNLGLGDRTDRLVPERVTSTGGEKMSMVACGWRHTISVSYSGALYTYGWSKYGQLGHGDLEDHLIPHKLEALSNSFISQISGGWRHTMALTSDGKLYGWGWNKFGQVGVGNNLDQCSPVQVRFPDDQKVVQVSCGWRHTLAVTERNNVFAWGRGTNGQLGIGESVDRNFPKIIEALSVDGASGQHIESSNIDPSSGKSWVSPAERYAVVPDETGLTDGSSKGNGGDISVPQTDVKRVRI", "experiment": "SEC", "details": "remark: other sources report otherwise"}}}
{"molecule": "O=C(/C=C/c1ccc(O)cc1)c1c(O)cc(O)cc1O", "note": "[NGC, naringenin chalcone]", "values": [{"measurement": "nanoDSF Tm increase with purified recombinant protein", "setting": "[1]", "result": "significant increase in Tm was observed when NGC was incubated with the three monomeric forms"}, {"measurement": "Kd", "setting": "[2]", "result": "~12", "unit": "µM"}]}
{"molecule": "His-SUMO-UVR8 (wild-type UV … LOCUS8), Q9FN03 1-440 (natural protein) MAEDMAADEVTAPPRKVLIISAGASHSVALLSGDIVCSWGRGEDGQLGHGDAEDRPSPTQLSALDGHQIVSVTCGADHTVAYSQSGMEVYSWGWGDFGRLGHGNSSDLFTPLPIKALHGIRIKQIACGDSHCLAVTMEGEVQSWGRNQNGQLGLGDTEDSLVPQKIQAFEGIRIKMVAAGAEHTAAVTEDGDLYGWGWGRYGNLGLGDRTDRLVPERVTSTGGEKMSMVACGWRHTISVSYSGALYTYGWSKYGQLGHGDLEDHLIPHKLEALSNSFISQISGGWRHTMALTSDGKLYGWGWNKFGQVGVGNNLDQCSPVQVRFPDDQKVVQVSCGWRHTLAVTERNNVFAWGRGTNGQLGIGESVDRNFPKIIEALSVDGASGQHIESSNIDPSSGKSWVSPAERYAVVPDETGLTDGSSKGNGGDISVPQTDVKRVRI", "values": [{"measurement": "stoichiometry N", "setting": "[3]", "result": 2}]}
